According to PMC8389922, “First-in-Class Cyclic Temporin L Analogue: Design, Synthesis, and Antimicrobial Assessment” (Journal of Medicinal Chemistry, 2021):
Converted amounts (≈) assume the structure as drawn. Bridge positions count the residues as written; N and C are the ends. Square brackets hold non-standard residues; d marks the D form. Peptide text beside a SMILES is read from it.

Columns and labels:
S. aureus ATCC 25923 = type: cell-based, Staphylococcus aureus
Procedure, shortened: (§1)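 MICs were determined by broth microdilution, with bacteria at a final 1 × 10^6 CFU/mL and peptides tested from 100 to 0.78 μM.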

[1] = CD spectroscopy, secondary structure content (DichroWeb); type: physicochemical; settings: for helix-1 (regular α-helix) / helix-2 (distorted α-helix) / random / β-strand-1 (regular β-strand) / β-strand-2 (distorted β-strand) / β-turn: peptide 50 μM, 25 °C
Description: The secondary structures of the linear peptide 9 and its stapled analogues 12, 17, and 24–26 were explored by circular dichroism (CD). CD spectroscopy studies were performed in water, and SDS or DPC micelles (20 mM) were used as mimics of the bacterial or mammalian membranes, respectively.[60]
The secondary structure content was predicted based on the CD spectra from 190 to 260 nm using the online server for protein secondary structure analyses, DichroWeb.[61] […] The hydrocarbon-bridged peptide 25 was slightly helical and structured in water, with weak ellipticity at 220 nm. Peptide 25 contains ∼13% regular helix and ∼10% distorted helix, according to the DichroWeb prediction.
All spectra were measured in the 260–190 nm spectral range, 1 nm bandwidth, 4 accumulations, and 100 nm/min scanning speed.[60] Each peptide was dissolved in water to prepare a 1 mM peptide stock solution. The CD spectra were performed in water, in SDS (20 mM) and in DPC (20 mM) using a peptide concentration of 50 μM. The secondary structure content of the peptides was predicted using the online server for protein secondary structure analyses DichroWeb.[61] Input and output units and the wavelength step were θ (mdeg) and 1.0 nm, respectively. The algorithm used was CONTIN-LL,[83] and reference database was set-7. When we have NRMSD > 0.100, we used the CDSSTR method.[83]

[2] = CD in SUVs, ratio of ellipticities at 222 and 208 nm; type: physicochemical; settings: peptide 8 μM, lipid 100 μM, phosphate buffer 5 mM pH 7.4, 25 °C, >1.0 indicates oligomeric helices
Description: TEXT PRINTED IN THE PICTURE: (c) 9: DOPG/CL mimicking Gram-positive membrane: θ222/ θ208: 1.7 | (c) 12: DOPG/CL mimicking Gram-positive membrane: θ222/ θ208: 2.6 | (c) 17: DOPG/CL mimicking Gram-positive membrane: θ222/ θ208: 1.9 | (f) 9: DOPE/DOPG/CL mimicking Gram-negative membrane: θ222/ θ208: 1.8 | (f) 12: DOPE/DOPG/CL mimicking Gram-negative membrane: θ222/ θ208: 2.1 | (f) 17: DOPE/DOPG/CL mimicking Gram-negative membrane: θ222/ θ208: 1.7
The ratio of the ellipticities at 222 and 208 nm was calculated to discriminate between monomeric and oligomeric states of helices.[64] As observed in our CD spectra, the ratio θ222/θ208 is always greater than 1.0 in both membranes, indicating an α-helical conformation in its oligomeric state (Figure 4c,f).
SUVs were prepared as reported: lipids (Gram-positive, DOPG/CL, 58/42 ratio in moles; Gram-negative DOPG/DOPE/CL, 63/23/12 ratio in moles) were dissolved in chloroform and an identical volume of peptide solution dissolved in TFE was added.[76] Then, the samples were vortexed and lyophilized overnight. CD spectra were recorded at a peptide concentration of 8 μM and at a lipid final concentration of 100 μM. […] CD spectra were recorded at 25 °C on a Jasco J-715 spectropolarimeter in a 1 cm quartz cell using three consecutive scans from 260 to 190 nm, 3 nm bandwidth, a time constant of 16 s, and a scan rate of 10 nm/min.

A. baumannii ATCC 19606 = type: cell-based, Acinetobacter baumannii
Procedure, shortened: as §1

P. aeruginosa ATCC 27853 = type: cell-based, Pseudomonas aeruginosa
Procedure, shortened: as §1

B. megaterium Bm11 = type: cell-based, Bacillus megaterium
Procedure, shortened: as §1

E. coli ATCC 25922 = type: cell-based, Escherichia coli
Procedure, shortened: as §1

[3] = 90% fresh human serum (male AB plasma), 37 ± 1 °C, peptide 0.2 mM, MeCN precipitation, RP-UHPLC peak area at 220 nm, triplicate
Description: Peptides were incubated with 90% fresh human serum at 37 ± 1 °C within 12 h.[69] The percentage of intact peptide was monitored by calculating the peak area of the chromatogram from RP-HPLC analysis.
The peptide was incubated in a 1.5 mL eppendorf tube with human serum at a final concentration of 0.2 mM, and the mixture was incubated at 37 ± 1 °C for different periods (0.25, 0.75, 1.5, 2, 3, 4, 6, 7, 8, and 12 h). After the incubation period, an aliquot of reaction solution was taken and added MeCN (double volume respect to the aliquot) for the precipitation of serum proteins present in human serum. The produced cloudy solution was cooled (4 °C) for 15 min and then centrifuged at 13 000 rpm for 10 min to remove the serum protein as pellet. Then, the supernatant was analyzed by RP-UHPLC using a linear elution gradient from 10 to 90% MeCN (0.1% TFA) in water (0.1% TFA) over 20 min. A flow rate of 1 mL/min was employed, and the absorbance of the eluting peaks was detected at 220 nm. The proteolytic stability assay was repeated in triplicate.

[4] = CD in DPC micelles (20 mM), DichroWeb
[5] = CD in SDS micelles (20 mM), DichroWeb
[6] = CD in water, DichroWeb (CONTIN-LL, set-7; CDSSTR if NRMSD > 0.100)

SMILES	MIC S. aureus ATCC 25923 (S. aureus ATCC 25923) [µM]	helix-1 (regular α-helix) [1, 4] [%]	helix-2 (distorted α-helix) [1, 4] [%]	random [1, 4] [%]	β-strand-1 (regular β-strand) [1, 4] [%]	β-strand-2 (distorted β-strand) [1, 4] [%]	β-turn [1, 4] [%]	helix-1 (regular α-helix) [1, 5] [%]	helix-2 (distorted α-helix) [1, 5] [%]	random [1, 5] [%]	β-strand-1 (regular β-strand) [1, 5] [%]	β-strand-2 (distorted β-strand) [1, 5] [%]	β-turn [1, 5] [%]	helix-2 (distorted α-helix) ([1]; CD in water, DichroWeb) [%]	random ([1]; CD in water, DichroWeb) [%]	β-strand-1 (regular β-strand) ([1]; CD in water, DichroWeb) [%]	β-strand-2 (distorted β-strand) ([1]; CD in water, DichroWeb) [%]	β-turn ([1]; CD in water, DichroWeb) [%]	helix-1 (regular α-helix) [1, 6] [%]	MIC A. baumannii ATCC 19606 (A. baumannii ATCC 19606) [µM]	further results
CC[C@H](C)[C@H](NC(=O)[C@H](CCCNC(=N)N)NC(=O)[C@@H]1CCCCn2cc(nn2)C[C@H](NC(=O)[C@H](Cc2ccccc2)NC(=O)[C@H](Cc2c[nH]c3ccccc23)NC(=O)[C@@H]2CCCN2C(=O)[C@@H](NC(=O)[C@@H](N)Cc2ccccc2)C(C)C)C(=O)N[C@@H](CCCCN)C(=O)N[C@@H](Cc2ccccc2)C(=O)NC(CC(C)C)C(=O)N1)C(=O)N[C@@H](CC(C)C)C(N)=O (stereo in doubt) [compound 17]	3.12 (≈ 5.35 µg/mL)	38	18	19	9	7	10	32	16	16	13	7	15	4	49	19	9	16	2	25 (≈ 42.9 µg/mL)	θ222/θ208 ([2]; CD in DOPE/DOPG/CL SUVs): 1.7; θ222/θ208 ([2]; CD in DOPG/CL SUVs): 1.9; MIC P. aeruginosa ATCC 27853 (P. aeruginosa ATCC 27853): >100 µM; MIC B. megaterium Bm11 (B. megaterium Bm11): 1.56 µM (≈ 2.67 µg/mL); MIC E. coli ATCC 25922 (E. coli ATCC 25922): >100 µM
CC[C@H](C)[C@H](NC(=O)[C@H](CCCNC(=N)N)NC(=O)[C@@H]1CCC(=O)NCCCC[C@H](NC(=O)[C@H](Cc2ccccc2)NC(=O)[C@H](Cc2c[nH]c3ccccc23)NC(=O)[C@@H]2CCCN2C(=O)[C@@H](NC(=O)[C@@H](N)Cc2ccccc2)C(C)C)C(=O)N[C@@H](CCCCN)C(=O)N[C@@H](Cc2ccccc2)C(=O)N[C@H](CC(C)C)C(=O)N1)C(=O)N[C@@H](CC(C)C)C(N)=O [compound 12] (H-FVPWFKKF[dL]ERIL-NH2; lactam 6-10)	3.12 (≈ 5.32 µg/mL)	54	21	13	1	4	7	58	24	5	0	3	10	2	55	18	8	15	0	3.12 (≈ 5.32 µg/mL)	helix percentage (total) in SDS solution ([1]; CD in SDS micelles (20 mM), DichroWeb, regular plus distorted helix): about 80%; MIC P. aeruginosa ATCC 27853 (P. aeruginosa ATCC 27853): 100 µM (≈ 170 µg/mL); time to complete degradation in human serum [3]: 12 h; MIC B. megaterium Bm11 (B. megaterium Bm11): 1.56 µM (≈ 2.66 µg/mL); MIC E. coli ATCC 25922 (E. coli ATCC 25922): 25 µM (≈ 42.6 µg/mL)
